molecular target: Phosphodiesterase type 5 (PDE5) (Homo sapiens (Human), UniProt O76074); experiment: In vitro phosphodiesterase type 5 (PDE5) inhibition assay; format: biochemical; conditions: purified PDE5, IMAP FP assay

Point of comparison: `COc1cc(CNC(=O)CN2CCC(Cc3ccccc3)CC2)cc(OC)c1OC` [Compound C34, 2-(4-Benzylpiperidin-1-yl)-N-(3,4,5-trimethoxybenzyl)acetamide], IC50 60.5 ± 1.18 nM. Against it:
- Cc1ccc(S(=O)(=O)N2CCC(c3ccccc3)CC2)cc1 [Compound C10] — 2.2-fold higher, 133 ± 2.59 nM
- O=S(=O)(c1ccc(Cl)cc1)N1CCC(c2ccccc2)CC1 [Compound C5] — 11-fold higher, 675 ± 13.2 nM
- O=S(=O)(c1ccccc1)N1CCC(Cc2ccccc2)CC1 [Compound C18] — 1.9-fold higher, 112 ± 2.19 nM
- CC(C(=O)Nc1ccc(F)cc1)N1CCC(Cc2ccccc2)CC1 (stereo not shown) [Compound C17] — 4.6-fold higher, 279 ± 5.43 nM
- O=C(CN1CCC(Cc2ccccc2)CC1)Nc1ccc(F)cc1 [Compound C32] — 3.4-fold higher, 203 ± 3.95 nM
- O=S(=O)(c1ccc(Cl)cc1)N1CCC(Cc2ccccc2)CC1 [Compound C29] — 4.1-fold higher, 250 ± 4.88 nM
- CC(C(=O)Nc1ccc(S(N)(=O)=O)cc1)N1CCC(Cc2ccccc2)CC1 (stereo not shown) [Compound C12, 2-(4-Benzylpiperidin-1-yl)-N-(4-sulfamoylphenyl)-2-methylacetamide] — 14-fold higher, 874 ± 17.1 nM
- O=S(=O)(c1ccccc1)N1CCC(c2ccccc2)CC1 [Compound C8] — within 1.5-fold, 54.2 ± 1.06 nM
- NS(=O)(=O)c1ccc(NC(=O)CN2CCC(Cc3ccccc3)CC2)cc1 [Compound C13, 2-(4-Benzylpiperidin-1-yl)-N-(4-sulfamoylphenyl)acetamide] — 3.7-fold higher, 221 ± 4.32 nM
- O=C(CN1CCC(Cc2ccccc2)CC1)NCc1ccccc1 [Compound C31] — within 1.5-fold, 74.9 ± 1.46 nM
- CC(C)c1cc(C(C)C)c(S(=O)(=O)N2CCC(Cc3ccccc3)CC2)c(C(C)C)c1 [Compound C27, 1-((2,4,6-Tri-isopropylphenyl)sulfonyl)-4-Benzylpiperidine] — 2.4-fold higher, 143 ± 2.78 nM
- CC(C)c1cc(C(C)C)c(S(=O)(=O)N2CCC(c3ccccc3)CC2)c(C(C)C)c1 [Compound C7, 1-((2,4,6-tri-isiopropylphenyl)sulfonyl)-4-phenylpiperidine] — 8.6-fold higher, 520 ± 10.1 nM
